Here are results for two molecules from paper PMC7356390, “Dehydrozingerone, a Curcumin Analog, as a Potential Anti-Prostate Cancer Inhibitor In Vitro and In Vivo” (Molecules, 2020).

Read-outs that look alike come from different tables or passages of the source.

One series has as its system PLS10 cells. The arrangement: method as in PMID 30499149. As to conditions: read-out: IC50 of Cur on PLS10 cells (previous study); cited from earlier work.
Series [1] in a line: In vivo pharmacokinetics and tissue distribution (HPLC). Further details: species or system male BALB/c mice. To be noted: for concentration at 30 min: 30 min after 100 mg/kg i.p.; for concentration at 60 min: 60 min after 100 mg/kg i.p.; for Tmax: serum, ip, read-out: time to maximum serum concentration after i.p. administration. The protocol:
Figure 5 Levels of serum Cur and DZG recorded in mice after receiving a single dose of Cur or DZG (100 mg/kg body weight) by intraperitoneal (i.p.) injection. Serum concentrations of Cur and DZG were determined by high-performance liquid chromatography (HPLC) using a reversed-phase C18 column (Waters). The mobile phase values were 52% acetonitrile and 48% citric buffer. Each point represents the mean ± S.E. of three or four mice.
A comparison of the pharmacokinetics between Cur and DZG was determined using seven-week-old male BALB/c mice. The designated 32 mice were randomly divided into 3 groups, identified as the control, Cur and DZG groups. Mice were i.p. injected with 50% DMSO in NSS (vehicle control), Cur or DZG at concentrations of 100 mg/kg of body weight for each mouse. The mice were euthanized, and blood from each mouse was collected at 0, 30, 60 and 180 min after injection. Lungs, liver and kidneys were removed and frozen for detection of the levels of concentrations of Cur and DZG.
The concentrations of Cur or DZG in the serum or organ tissues were determined using the HPLC method. The tissues were homogenized in 200 μl of 50% acetonitrile and vortexed for 5 min. Samples were centrifuged at 96.5 g at 4°C for 20 min. Fifty microliters of serum or tissue homogenate was mixed with 1.5-mg/mL trichloroacetic acid in 100 µl of acetonitrile. The substance was then centrifuged at 96.5 g at 4°C for 20 min. Sixty microliters of the supernatant was collected and subjected to HPLC using a reversed-phase C18 column (Waters Corporation, Milford, MA, USA). The mobile phase was composed of 52% acetonitrile and 48% citric buffer (1% w/v citric acid, pH 3.0), and the flow rate was set at 1 mL/min. The detection wavelength for Cur and DZG were 425 and 340 nm, respectively. Concentrations of Cur and DZG in the serum were calculated and compared to the standard curve (0–3200 ng/mL). The limits of quantification for Cur and DZG were 100 and 50 ng/mL, respectively. The extraction recovery from the plasma was approximately 90% for both Cur and DZG.

For series [2] the following is noted: intraperitoneal administration of 100 mg/kg; cited from earlier work.
For another series, the system named is HT-29 cells. Further details: method as in PMID 23245566. As to conditions: cited from earlier work.
Setting [3] is: male, BALB/c, mouse, kidney, intraperitoneal, 100 mg/kg body weight, mean ± S.E., read-out: tissue concentration, Kidneys.
The mark [4] stands for this setting: male, BALB/c, mouse, liver, intraperitoneal, 100 mg/kg body weight, mean ± S.E., read-out: tissue concentration, Liver.
Setting [5] is: male, BALB/c, mouse, lung, intraperitoneal, 100 mg/kg body weight, mean ± S.E., read-out: tissue concentration, Lung.
[6] abbreviates: male, BALB/c, mouse, single dose 100 mg/kg i.p., mice.
The mark [7] stands for this setting: single dose 100 mg/kg i.p., mice.

Take `COc1cc(/C=C/C(=O)CC(=O)/C=C/c2ccc(O)c(OC)c2)ccc1O` [Cur, Curcumin]: in the series on PLS10 cells, the IC50 (in general, the concentration needed to halve the response being measured) was 26.5 ± 1.8 µM. Besides, in series [1] (setting [3]), the concentration at 30 min worked out at 1010 ± 550 ng/g and the concentration at 60 min stood at 530 ± 190 ng/g. For the same molecule, the concentration at 30 min in series [1] (setting [4]) came out at 2600 ± 780 ng/g. For the same molecule, in series [1] (setting [5]), the concentration at 30 min amounted to 1150 ± 1300 ng/g. Also, in series [1] (setting [6]), the Tmax was not above 30 min. For the same molecule, in series [1] (setting [7]), the maximum serum concentration is recorded as 2.28 ± 2.42 µg/mL and the “time at detectable concentrations in the serum after i.p. injection” value is reported as not above 1 h.
`COc1cc(/C=C/C(C)=O)ccc1O` [DZG, (E)-4-(4-hydroxy-3-methoxyphenyl)-but-3-en-2-one]: in series [2], the “effect on serum aspartate aminotransferase, alanine transaminase, serum creatinine, blood urea and lactate dehydrogenase” value is on record as “no effect”. Also, the “concentration range that suppressed proliferation of HT-29 cells (G2/M arrest)” value in the series with HT-29 cells is 250 to 500 µM. For the same molecule, in series [1] (setting [3]), the concentration at 30 min was determined as 5920 ± 3800 ng/g and the concentration at 60 min turned out to be 9750 ± 4080 ng/g. Further, the concentration at 180 min in series [1] (male, BALB/c, mouse, kidney, intraperitoneal, 100 mg/kg body weight, 180 min after 100 mg/kg i.p., mean ± S.E., read-out: tissue concentration, Kidneys) amounted to 860 ± 220 ng/g. For the same molecule, in series [1] (setting [4]), the concentration at 30 min stood at 920 ± 670 ng/g and the concentration at 60 min was 410 ± 110 ng/g. In series [1] (setting [5]), the concentration at 30 min stood at 1410 ± 740 ng/g and the concentration at 60 min is 720 ± 280 ng/g. Also, the Tmax in series [1] (setting [6]) is not above 30 min. For the same molecule, in series [1] (setting [7]), the maximum serum concentration was 4.87 ± 2.74 µg/mL, the “time at detectable concentrations in the serum after i.p. injection” value is on record as “up to 3 h” and the “time of highest concentration in the kidneys after injection” value is 1 h.
